Reference: patent publication US20040266766A1, “Selective urokinase inhibitors” (Wilex AG, priority 2001, published 2004)
Where a name gives a salt, the structure may show the parent alone. Read-outs that look alike come from different tables or passages of the source.

Tests used:
Caco-2 cell monolayers = test: Caco-assay: transport across Caco-2 cell monolayers; assay type: in vitro ADME, human; conditions: for % amount in the basolateral compartment: 10 μg/ml apical, four hours
Method: Transport of the compounds WX-508, WXC-316, WXC-318, WXC-324, WXC-340, WX-532, WX-538, WX-550 and WX-582 across Caco-2 cell monolayers was investigated. In this experiment the bioavailability of the said compounds after oral administration was assessed.
Caco-2-cells (American Type Culture Collection, Rockville, Md., USA) were cultured in Dulbecco's modified Eagle medium (DMEM) (Life Technologies, Gibco BRL, UK) containing 10% vol/vol heat-denatured foetal calf serum (FCS), 1% vol/vol non-essential amino acids, 160 U/ml benzylpenicillin and 100 U/ml streptomycin (Sigma Chemical, St. Louis, Mo., USA). The cells are kept at 37° C. in an atmosphere comprising 95% air and 5% CO2 at 90% relative air humidity. The cells are cultured in […] culture flasks, the medium being replaced every second day and the cells are trypsinized once per week.
For the transport investigations the Caco-2 cells are cultured on porous polycarbonate filter membranes having a pore size of 0.4 μm and a surface of 4.7 cm^2 in clusters of 6 wells (Costar Transwell, Badhoevedorp, Netherlands). The cells are inoculated on each filter at an initial density of 10^4 cells/cm^2. These cells are kept at 37° C. in one of the atmospheres described above. The medium is replaced every second day for a period of three weeks.
On the day of the transport experiment the culture medium was replaced by the same volume of Hank's balanced saline solution (HBSS) buffered with 30 mM HEPES at pH 7.2 (transport medium) and the cells are allowed to equilibrate for 1 hour. Afterwards the apical medium is replaced by 1.5 ml of a solution containing one of the compounds in HBSS/HEPES (10 μg/ml). Cell monolayers are incubated for four hours. Samples of the apical and basolateral compartments are removed at the end of the experiments and used to quantitatively determine the transport of the respective compounds.
The transepithelial electric resistance (TEER) is measured before and after equilibration using a Milicell ERS meter which was connected to a pair of electrodes in order to ensure the integrity of the monolayers formed on the filters. TEER is also measured at the end of the experiments to ensure that the cell monolayer remains coherent.
Samples are taken from the apical and the basolateral side and analysed in a beta counter after adding a scintillation cocktail. All experiments were carried out three times.

urokinase (uPA) = target: T1, urokinase (uPA) (Homo sapiens, UniProt P00749); test: In vitro inhibition of urokinase (Ki according to Dixon, chromogenic substrate); assay type: biochemical
T1 construct: purchased Calbiochem-Novabiochem GmbH, Bad Soden, Germany
Method: (§1) In order to determine the inhibitory activity, 200 μl Tris buffer (0.05 mol/l containing the inhibitor, 0.154 mol/l NaCl, pH 8.0), 25 μl substrate (Pefachrome uPA, Pefachrome PL or Pefabloc TH in H2O; Pentapharm Ltd, Basle, Switzerland) and 50 μl urokinase (Calbiochem-Novabiochem GmbH, Bad Soden, Germany) or another appropriate protease e.g. plasmin, thrombin or FXa are incubated for 10 minutes at 30° C. After ca. 30 minutes and 30 cycles the absorption is determined at 405 nm by means of a microplate reader (Mediators PHL, Aureon Biosystems, Vienna, Austria). The Ki values were determined according to Dixon by linear regression using a computer program.

PK = PK (Homo sapiens, UniProt P03952); test: In vitro inhibition of PK (Ki); assay type: biochemical; conditions: summary table
Method: as §1

Thrombin = Thrombin (Homo sapiens, UniProt P00734); test: In vitro inhibition of thrombin (Ki according to Dixon); assay type: biochemical
Method: as §1

Plasmin = Plasmin (Homo sapiens, UniProt P00747); test: In vitro inhibition of plasmin (Ki according to Dixon); assay type: biochemical
Method: as §1

[1] = Oral bioavailability and plasma kinetics in mice (serum concentration); assay type: in vivo, Balb/c mice; conditions: mouse; for concentration at 20 min / concentration at 40 min / concentration at 60 min: female, Balb/c, serum, po; for concentration at 20 min: sample at 20 minutes; for concentration at 40 min: sample at 40 minutes; for concentration at 60 min: sample at 60 minutes
FXa = FXa (Homo sapiens, UniProt P00742); test: In vitro inhibition of FXa (Ki according to Dixon); assay type: biochemical
Method: as §1

[2] = list of test substances of Example 17, read-out: Ki human uPA
[3] = summary table, read-out: Ki uPA
[4] = 30 mg/kg, 30 mg/kg oral, read-out: c in the serum 1st analysis
[5] = 300 mg/kg, 300 mg/kg oral, read-out: c in the serum 1st analysis
[6] = 300 mg/kg, 300 mg/kg oral, read-out: c in the serum 2nd analysis
[7] = 10 mg/kg i.v., time of sample collection 0
[8] = 10 mg/kg i.v., time of sample collection 10
[9] = 10 mg/kg i.v., time of sample collection 30
[10] = 7.5 mg/kg, 7.5 mg/kg oral, read-out: c in the serum 1st analysis
[11] = 75 mg/kg, 75 mg/kg oral, read-out: c in the serum 1st analysis
[12] = 2.5 mg/kg i.v., time of sample collection 0
[13] = 2.5 mg/kg i.v., time of sample collection 10
[14] = 2.5 mg/kg i.v., time of sample collection 30

Plasmin, sequence (P00747 581-810 limits assumed, species assumed): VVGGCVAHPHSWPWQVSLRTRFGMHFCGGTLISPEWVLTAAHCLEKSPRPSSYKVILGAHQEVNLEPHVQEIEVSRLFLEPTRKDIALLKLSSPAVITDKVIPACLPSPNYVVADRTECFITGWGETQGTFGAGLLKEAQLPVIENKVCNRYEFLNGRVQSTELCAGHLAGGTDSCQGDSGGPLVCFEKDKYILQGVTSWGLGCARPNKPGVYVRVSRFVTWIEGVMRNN
Plasmin, sequence (P00747 97-580 partner limits assumed, species assumed): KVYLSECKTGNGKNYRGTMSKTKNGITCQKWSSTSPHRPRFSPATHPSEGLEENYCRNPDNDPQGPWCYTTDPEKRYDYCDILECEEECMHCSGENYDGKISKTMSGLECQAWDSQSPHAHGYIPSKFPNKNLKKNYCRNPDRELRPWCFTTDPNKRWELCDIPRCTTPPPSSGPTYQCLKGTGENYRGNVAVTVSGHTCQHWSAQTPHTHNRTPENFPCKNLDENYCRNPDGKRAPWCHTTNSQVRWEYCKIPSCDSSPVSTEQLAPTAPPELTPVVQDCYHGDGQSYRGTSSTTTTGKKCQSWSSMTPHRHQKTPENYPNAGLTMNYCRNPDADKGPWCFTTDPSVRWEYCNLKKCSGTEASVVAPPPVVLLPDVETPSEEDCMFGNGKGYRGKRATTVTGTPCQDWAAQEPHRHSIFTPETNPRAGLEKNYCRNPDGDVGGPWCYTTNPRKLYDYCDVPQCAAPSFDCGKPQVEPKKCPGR
PK, sequence (P03952 20-638): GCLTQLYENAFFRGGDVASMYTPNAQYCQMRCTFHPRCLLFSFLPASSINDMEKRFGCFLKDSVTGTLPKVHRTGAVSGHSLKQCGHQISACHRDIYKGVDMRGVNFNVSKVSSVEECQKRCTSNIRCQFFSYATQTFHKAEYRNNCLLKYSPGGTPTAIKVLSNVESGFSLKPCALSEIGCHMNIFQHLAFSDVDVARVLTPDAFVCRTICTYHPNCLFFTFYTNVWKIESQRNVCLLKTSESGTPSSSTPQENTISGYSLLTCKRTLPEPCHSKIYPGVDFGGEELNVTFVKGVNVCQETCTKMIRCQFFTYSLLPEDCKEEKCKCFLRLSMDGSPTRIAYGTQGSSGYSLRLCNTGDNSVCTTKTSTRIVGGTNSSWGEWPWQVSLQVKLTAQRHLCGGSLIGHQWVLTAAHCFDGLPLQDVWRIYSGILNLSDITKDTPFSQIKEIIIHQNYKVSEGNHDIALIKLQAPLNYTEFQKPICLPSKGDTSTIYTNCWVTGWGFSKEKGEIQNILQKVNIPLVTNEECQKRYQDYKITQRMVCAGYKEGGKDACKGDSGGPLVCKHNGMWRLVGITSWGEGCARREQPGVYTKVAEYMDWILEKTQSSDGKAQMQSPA
FXa, sequence (P00742 235-488 limits assumed): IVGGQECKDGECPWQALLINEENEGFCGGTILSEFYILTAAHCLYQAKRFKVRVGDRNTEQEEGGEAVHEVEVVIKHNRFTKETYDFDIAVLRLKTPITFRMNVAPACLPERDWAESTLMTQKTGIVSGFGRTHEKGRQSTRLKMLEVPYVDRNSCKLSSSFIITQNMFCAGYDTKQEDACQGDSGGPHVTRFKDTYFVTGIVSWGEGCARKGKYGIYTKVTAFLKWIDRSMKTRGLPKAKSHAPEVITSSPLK
FXa, sequence (P00742 41-179 partner limits assumed): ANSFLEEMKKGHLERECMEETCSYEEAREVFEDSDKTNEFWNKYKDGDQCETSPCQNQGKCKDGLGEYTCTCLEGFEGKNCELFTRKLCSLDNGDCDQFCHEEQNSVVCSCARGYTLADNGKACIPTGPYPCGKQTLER

% amount in the basolateral compartment (Caco-2 cell monolayers; first value column) [%] | % amount in the basolateral compartment (Caco-2 cell monolayers; second value column) [%] | % amount in the basolateral compartment (Caco-2 cell monolayers; third value column) [%] | Caco-2 assay % basolateral (Caco-2 cell monolayers; first series, first value) | Caco-2 assay % basolateral (Caco-2 cell monolayers; first series, second value) | Caco-2 assay % basolateral (Caco-2 cell monolayers; first series, third value) | Ki (urokinase (uPA); [2]) [nM] | Ki (urokinase (uPA); read-out: Ki uPA) [nM] | Ki (urokinase (uPA); [3]) [nM] | Ki (PK) [µM] | Ki (Plasmin) [µM] | Caco-2 assay % basolateral (Caco-2 cell monolayers; second series, first value) [%] | Caco-2 assay % basolateral (Caco-2 cell monolayers; second series, second value) [%] | Caco-2 assay % basolateral (Caco-2 cell monolayers; second series, third value) [%] | Ki (FXa) [µM] | Ki (Thrombin) [µM] | SMILES | other results
0 | 0 | 0 | 0/0/0% | 0/0/0% | 0/0/0% | 16 | 16 | 16 | 49 | 40 | – | – | – | – | – | C[C@H](NC(=O)C(CO)NS(=O)(=O)Cc1ccccc1)C(=O)NCc1ccc(NC(=N)N)cc1 (stereo partly drawn) [WX-532, Benzylsulfonyl-(D)-Ser-Ala-(4-guanidinobenzyl)amide hydrochloride] | Ki Thrombin (Thrombin): no inh. at 100 μM *); Ki Thrombin (Thrombin; summary table): no inh. at 100 μM *); concentration at 20 min [1, 4]: 1500 ng/mL; concentration at 40 min [1, 4]: 10900 ng/mL; concentration at 60 min [1, 4]: 900 ng/mL; concentration at 20 min [1, 5]: 5800 ng/mL; concentration at 20 min [1, 6]: 6700 ng/mL; concentration at 40 min [1, 5]: 2900 ng/mL; concentration at 40 min [1, 6]: 3300 ng/mL; concentration at 60 min [1, 5]: 12800 ng/mL; concentration at 60 min [1, 6]: 15000 ng/mL; c in the serum 1st analysis [1, 7]: 61.7 µg/mL; c in the serum 2nd analysis [1, 7]: 68.8 µg/mL; c in the serum 1st analysis [1, 8]: 3.8 µg/mL; c in the serum 2nd analysis [1, 8]: 3.5 µg/mL; c in the serum 1st analysis [1, 9]: 11.4 µg/mL; c in the serum 2nd analysis [1, 9]: 11.2 µg/mL
0.2 | 0.2 | 0.1 | 0.2% | 0.2% | 0.1% | 41 | 41 | 41 | 109 | 130 | 0.1 | 0.1 | 0 | > 100 | > 100 | CN(CC(=O)NCc1ccc(NC(=N)N)cc1)C(=O)C(CO)NS(=O)(=O)Cc1ccccc1 (stereo not shown) [WX-538, benzylsulfonyl-(D)-Ser-N-Me-Gly-(4-guanidinobenzyl)amide] | Ki (FXa; summary table): > 100 µM; Ki (Thrombin; summary table): > 100 µM; concentration at 20 min [1, 4]: 100 ng/mL; concentration at 40 min [1, 4]: 50 ng/mL; concentration at 60 min [1, 4]: 200 ng/mL; concentration at 20 min [1, 5]: 2500 ng/mL; concentration at 40 min [1, 5]: 3500 ng/mL; concentration at 60 min [1, 5]: 2300 ng/mL; c in the serum 1st analysis [1, 7]: 45.8 µg/mL; c in the serum 1st analysis [1, 8]: 5.5 µg/mL; c in the serum 1st analysis [1, 9]: 0.6 µg/mL
– | – | – | – | – | – | – | 830 | – | – | – | – | – | – | – | – | N=C(N)Nc1ccc(CNC(=O)NNC(=O)[C@@H](CO)NS(=O)(=O)Cc2ccccc2)cc1 [WX-544, BzSO2-(D)-Ser-AzaGly-(4-guanidinobenzyl)amide] | Ki Thrombin (Thrombin): no inh. at 100 μM *)
0 | 3.1 | 0.6 | 0% | 3.1% | 0.6% | 100 | 100 | 100 | 268 | 2.5 | – | – | – | > 100 | > 50 | N=C(N)Nc1ccc(CNC(=O)[C@H](CCc2ccccc2)NC(=O)C(CO)NS(=O)(=O)Cc2ccccc2)cc1 (stereo partly shown) [WX-550, Benzylsulfonyl-(D)-Ser-HomoPhe-(4-guanidinobenzyl)amide hydrochloride] | Ki (FXa; summary table): > 100 µM; Ki (Thrombin; summary table): > 50 µM; concentration at 20 min [1, 10]: 0 ng/mL; concentration at 40 min [1, 10]: 0 ng/mL; concentration at 60 min [1, 10]: 0 ng/mL; concentration at 20 min [1, 11]: 0 ng/mL; concentration at 40 min [1, 11]: 300 ng/mL; concentration at 60 min [1, 11]: 0 ng/mL; c in the serum 1st analysis [1, 12]: 7.2 µg/mL; c in the serum 1st analysis [1, 13]: 0.7 µg/mL; c in the serum 1st analysis [1, 14]: 0.02 µg/mL
– | – | – | – | – | – | – | 2100 | – | – | – | – | – | – | > 1000 | > 1000 | N=C(N)Nc1ccc(S(=O)(=O)NCCNC(=O)C(CO)NS(=O)(=O)Cc2ccccc2)cc1 (stereo not shown) [WX-568, N-[2-(4-guanidino-benzenesulfonylamino)-ethyl]-3-hydroxy-2-phenylmethanesulfonylamino-propionamide hydrochloride] | –
0.4 | 3.1 | 5.2 | 0% | 3.1% | 5.2% | 10 | 10 | – | 58 | – | 0.4 | 2.9 | 3.0 | – | – | C[C@@H](C(=O)NCc1ccc(NC(=N)N)cc1)N(C)C(=O)[C@@H](CO)NS(=O)(=O)Cc1ccc(Cl)cc1 [WX-582, 4-chlorobenzylsulfonyl-(D)-Ser-N-Me-Ala-(4-guanidinobenzyl)amide] | concentration at 20 min [1, 10]: 0 ng/mL; concentration at 40 min [1, 10]: 0 ng/mL; concentration at 60 min [1, 10]: 0 ng/mL; concentration at 20 min [1, 11]: 1000 ng/mL; concentration at 40 min [1, 11]: 700 ng/mL; concentration at 60 min [1, 11]: 400 ng/mL; c in the serum 1st analysis [1, 12]: 11.5 µg/mL; c in the serum 1st analysis [1, 13]: 0.8 µg/mL; c in the serum 1st analysis [1, 14]: 0.1 µg/mL
0.1 | 0.1 | 2.0 | 0.1% | 0.1% | 2.9% | – | 3100 | – | – | – | 0 | 0 | 3.0 | – | – | N=C(N)Nc1ccc(CNC(=O)CNC(=O)C(CO)NC(=O)Nc2cccc(C(=O)O)c2)cc1 (stereo not drawn) [WX-C324, 3-Carboxyphenyl-aminocarbonyl-(D)-Ser-Gly-(4-guanidinobenzyl)amide hydrochloride] | –
